The subject of test [1] is MDA-MB-468. Kind of test: Percentage viability of compound against MDA-MB-468 cell line; 92-94%. Format: functional, Homo sapiens.
Test [2] deals with SK-N-MC. Kind of test: Percentage viability of compound against SK-N-MC cell line; 92-94%. Format: functional, Homo sapiens.
Test [3] has as its system MCF7. The experiment in a line: Percentage viability of compound against MCF-7 cell line. The test is classed as functional, Homo sapiens.
For test [4], the system named is T47D. Kind of test: Percentage viability of compound against T47D cell line; 92-94%. Format: functional, Homo sapiens.
Test [5] concerns T47D. The experiment in a line: Percentage viability of compound against T47D cell line; NE means No effect. Format: functional, cell-based. The following applies: Homo sapiens.
Test [6] deals with SK-N-MC. The experiment in a line: Percentage viability of compound against SK-N-MC cell line; NE means No effect. Conditions: Homo sapiens. The test is classed as functional, cell-based.
For test [7], the system named is MDA-MB-468. The experiment in a line: Percentage viability of compound against MDA-MB-468 cell line; NE means No effect. The following applies: Homo sapiens. Format: functional, cell-based.
Test [8] relates to MCF7. Kind of test: Percentage viability of compound against MCF-7 cell line; NE means No effect. The test is classed as functional, cell-based. Conditions: Homo sapiens.

SMILES strings stand for the structures. Activity calls are given as the source filed them. The rule behind the calls is not given here.

On to `CCCCCCCCCCCCCCCCOC[C@@H](/C=C/P(=O)([O-])OCC[N+](C)(C)C)OC`, for which the Viability is given as less than 94% with MDA-MB-468 [1], less than 94% in the test on SK-N-MC [2], 61% in the test with MCF7 [3] and less than 94% with T47D [4].
On to `CCCCCCCCCCCCCCCCOC[C@H](/C=C/P(=O)([O-])OCC[N+](C)(C)C)OC`, for which the Viability result in the test with T47D [5], with SK-N-MC [6], in the test with MDA-MB-468 [7] and in the test with MCF7 [8] was “inactive” each time.

For the origin of these results see ChEMBL document CHEMBL1148455, “Synthesis and use of novel ether phospholipid enantiomers to probe the molecular basis of the antitumor Effects of alkyllysophospholipids: correlation of differential activation of c-Jun NH(2)-terminal protein kinase with antiproliferative effects in neuronal tumor cells” (2004).
